Experimental data taken from the NIST ThermoML archive (doi:10.1021/je060472e).
Values joined by “and” are separate entries in the source; they are usually repeats but may differ in a detail not shown here. Identical values can stand only once. Numbers after ± are expanded uncertainties.

Tests used:
[1] = for vapor or sublimation pressure: Closed cell (Static) method; for Normal melting temperature: DTA
[2] = Molar enthalpy of transition or fusion; settings: Crystal; DSC

Question: With `COC(=O)c1ccccn1` [methyl 2-pyridinecarboxylate] as the molecule, how does the “vapor or sublimation pressure” value ([1]; 273.21 K, Liquid) read?
Answer: 0.00051 ± 9.4e-05 kPa and 0.000505 ± 9.4e-05 kPa

Question: And the “vapor or sublimation pressure” value ([1]; 278.18 K, Liquid)?
Answer: 0.00086 ± 0.0001 kPa and 0.000856 ± 0.0001 kPa

Question: And the “vapor or sublimation pressure” value ([1]; 278.2 K, Crystal)?
Answer: 0.000582 ± 9.6e-05 kPa and 0.00058 ± 9.6e-05 kPa

Question: What about the “vapor or sublimation pressure” value ([1]; 280.67 K, Crystal) of the same molecule?
Answer: 0.000793 ± 0.0001 kPa

Question: What about the “vapor or sublimation pressure” value ([1]; 280.68 K, Crystal) of the same molecule?
Answer: 0.000794 ± 0.0001 kPa

Question: What about the “vapor or sublimation pressure” value ([1]; 283.15 K, Crystal) of the same molecule?
Answer: 0.001087 ± 0.00011 kPa

Question: What about the “vapor or sublimation pressure” value ([1]; 283.15 K, Liquid) of the same molecule?
Answer: 0.001403 ± 0.00011 kPa

Question: And the “vapor or sublimation pressure” value ([1]; 283.16 K, Crystal)?
Answer: 0.001086 ± 0.00011 kPa

Question: What about the “vapor or sublimation pressure” value ([1]; 283.16 K, Liquid) of the same molecule?
Answer: 0.001399 ± 0.00011 kPa

Question: What about the “vapor or sublimation pressure” value ([1]; 285.65 K, Crystal) of the same molecule?
Answer: 0.001476 ± 0.00011 kPa and 0.001472 ± 0.00011 kPa

Question: What about the “vapor or sublimation pressure” value ([1]; 288.13 K, Liquid) of the same molecule?
Answer: 0.002242 ± 0.00013 kPa

Question: What about the “vapor or sublimation pressure” value ([1]; 288.14 K, Crystal) of the same molecule?
Answer: 0.001988 ± 0.00013 kPa

Question: And the “vapor or sublimation pressure” value ([1]; 288.14 K, Liquid)?
Answer: 0.002246 ± 0.00013 kPa

Question: And the “vapor or sublimation pressure” value ([1]; 288.15 K, Crystal)?
Answer: 0.001989 ± 0.00013 kPa

Question: And the “vapor or sublimation pressure” value ([1]; 290.63 K, Crystal)?
Answer: 0.002681 ± 0.00015 kPa

Question: And the “vapor or sublimation pressure” value ([1]; 290.65 K, Crystal)?
Answer: 0.002682 ± 0.00015 kPa

Question: And the “vapor or sublimation pressure” value ([1]; 293.12 K, Liquid)?
Answer: 0.00357 ± 0.00017 kPa

Question: And the “vapor or sublimation pressure” value ([1]; 293.13 K, Liquid)?
Answer: 0.003566 ± 0.00017 kPa

Question: And the “vapor or sublimation pressure” value ([1]; 298.15 K, Liquid)?
Answer: 0.005628 ± 0.00024 kPa and 0.005601 ± 0.00024 kPa

Question: What about the “vapor or sublimation pressure” value ([1]; 303.15 K, Liquid) of the same molecule?
Answer: 0.008522 ± 0.00035 kPa and 0.008506 ± 0.00035 kPa

Question: What about the “vapor or sublimation pressure” value ([1]; 308.08 K, Liquid) of the same molecule?
Answer: 0.0128 ± 0.00051 kPa

Question: And the “vapor or sublimation pressure” value ([1]; 308.11 K, Liquid)?
Answer: 0.01279 ± 0.00051 kPa

Question: And the “vapor or sublimation pressure” value ([1]; 313.12 K, Liquid)?
Answer: 0.01919 ± 0.00061 kPa

Question: And the “vapor or sublimation pressure” value ([1]; 313.13 K, Liquid)?
Answer: 0.01916 ± 0.00061 kPa

Question: And the “vapor or sublimation pressure” value ([1]; 318.09 K, Liquid)?
Answer: 0.02771 ± 0.00074 kPa and 0.02763 ± 0.00074 kPa

Question: What about the “vapor or sublimation pressure” value ([1]; 323.05 K, Liquid) of the same molecule?
Answer: 0.03968 ± 0.00092 kPa

Question: And the “vapor or sublimation pressure” value ([1]; 328.04 K, Liquid)?
Answer: 0.05628 ± 0.0012 kPa and 0.05632 ± 0.0012 kPa

Question: What about the “vapor or sublimation pressure” value ([1]; 333.01 K, Liquid) of the same molecule?
Answer: 0.0787 ± 0.0015 kPa

Question: And the “vapor or sublimation pressure” value ([1]; 333.02 K, Liquid)?
Answer: 0.07876 ± 0.0015 kPa

Question: And the “vapor or sublimation pressure” value ([1]; 337.99 K, Liquid)?
Answer: 0.1088 ± 0.002 kPa

Question: What about the “vapor or sublimation pressure” value ([1]; 340.47 K, Liquid) of the same molecule?
Answer: 0.127 ± 0.0023 kPa

Question: What about the Normal melting temperature ([1]; Crystal) of the same molecule?
Answer: 16.1 ± 0.5 °C

Question: What about the “Molar enthalpy of transition or fusion” value [2] of the same molecule?
Answer: 4.02 ± 0.0956 kcal/mol

Question: Which “vapor or sublimation pressure” value ([1]; 273.26 K, Liquid) does the source give for `COC(=O)c1ccncc1` [methyl 4-pyridinecarboxylate] here?
Answer: 0.002588 ± 0.00014 kPa

Question: And the “vapor or sublimation pressure” value ([1]; 275.74 K, Liquid)?
Answer: 0.003349 ± 0.00016 kPa and 0.003323 ± 0.00016 kPa

Question: And the “vapor or sublimation pressure” value ([1]; 278.22 K, Liquid)?
Answer: 0.004243 ± 0.00019 kPa

Question: And the “vapor or sublimation pressure” value ([1]; 278.23 K, Liquid)?
Answer: 0.004253 ± 0.00019 kPa

Question: What about the “vapor or sublimation pressure” value ([1]; 280.71 K, Liquid) of the same molecule?
Answer: 0.005373 ± 0.00023 kPa and 0.005383 ± 0.00023 kPa

Question: And the “vapor or sublimation pressure” value ([1]; 283.19 K, Liquid)?
Answer: 0.006753 ± 0.00028 kPa

Question: What about the “vapor or sublimation pressure” value ([1]; 285.66 K, Liquid) of the same molecule?
Answer: 0.008443 ± 0.00034 kPa

Question: And the “vapor or sublimation pressure” value ([1]; 288.16 K, Liquid)?
Answer: 0.01054 ± 0.00042 kPa

Question: What about the “vapor or sublimation pressure” value ([1]; 290.65 K, Liquid) of the same molecule?
Answer: 0.01308 ± 0.00051 kPa

Question: And the “vapor or sublimation pressure” value ([1]; 293.15 K, Liquid)?
Answer: 0.01615 ± 0.00056 kPa

Question: And the “vapor or sublimation pressure” value ([1]; 293.16 K, Liquid)?
Answer: 0.01617 ± 0.00056 kPa

Question: What about the “vapor or sublimation pressure” value ([1]; 295.65 K, Liquid) of the same molecule?
Answer: 0.0199 ± 0.00062 kPa

Question: And the “vapor or sublimation pressure” value ([1]; 298.13 K, Liquid)?
Answer: 0.02427 ± 0.00069 kPa

Question: And the “vapor or sublimation pressure” value ([1]; 298.14 K, Liquid)?
Answer: 0.02428 ± 0.00069 kPa

Question: And the “vapor or sublimation pressure” value ([1]; 300.63 K, Liquid)?
Answer: 0.0296 ± 0.00077 kPa and 0.02961 ± 0.00077 kPa

Question: And the “vapor or sublimation pressure” value ([1]; 303.12 K, Liquid)?
Answer: 0.03595 ± 0.00087 kPa

Question: What about the “vapor or sublimation pressure” value ([1]; 303.13 K, Liquid) of the same molecule?
Answer: 0.03597 ± 0.00087 kPa

Question: What about the “vapor or sublimation pressure” value ([1]; 305.62 K, Liquid) of the same molecule?
Answer: 0.04347 ± 0.00098 kPa

Question: And the “vapor or sublimation pressure” value ([1]; 305.63 K, Liquid)?
Answer: 0.04348 ± 0.00098 kPa

Question: And the “vapor or sublimation pressure” value ([1]; 308.09 K, Liquid)?
Answer: 0.05219 ± 0.0011 kPa

Question: And the “vapor or sublimation pressure” value ([1]; 310.59 K, Liquid)?
Answer: 0.06266 ± 0.0013 kPa

Question: What about the “vapor or sublimation pressure” value ([1]; 310.6 K, Liquid) of the same molecule?
Answer: 0.0627 ± 0.0013 kPa

Question: What about the “vapor or sublimation pressure” value ([1]; 313.07 K, Liquid) of the same molecule?
Answer: 0.07495 ± 0.0015 kPa and 0.0749 ± 0.0015 kPa

Question: And the “vapor or sublimation pressure” value ([1]; 315.54 K, Liquid)?
Answer: 0.08924 ± 0.0017 kPa

Question: And the “vapor or sublimation pressure” value ([1]; 315.56 K, Liquid)?
Answer: 0.08934 ± 0.0017 kPa

Question: And the “vapor or sublimation pressure” value ([1]; 318.03 K, Liquid)?
Answer: 0.1062 ± 0.002 kPa

Question: And the “vapor or sublimation pressure” value ([1]; 320.52 K, Liquid)?
Answer: 0.1256 ± 0.0023 kPa

Question: What about the Normal melting temperature ([1]; Crystal) of the same molecule?
Answer: 10.2 ± 0.9 °C

Question: And the “Molar enthalpy of transition or fusion” value [2]?
Answer: 3.49 ± 0.167 kcal/mol

Question: Which results are given for `COC(=O)c1cccnc1` [3-pyridinecarboxylic acid methyl ester]?
Answer: vapor or sublimation pressure ([1]; 273.23 K, Crystal): 0.000651 ± 9.6e-05 kPa and 0.000658 ± 9.6e-05 kPa; vapor or sublimation pressure ([1]; 278.2 K, Crystal): 0.001228 ± 0.00011 kPa and 0.001214 ± 0.00011 kPa; vapor or sublimation pressure ([1]; 283.18 K, Crystal): 0.002269 ± 0.00013 kPa; vapor or sublimation pressure ([1]; 283.19 K, Crystal): 0.002282 ± 0.00013 kPa and 0.002271 ± 0.00013 kPa; vapor or sublimation pressure ([1]; 288.16 K, Crystal): 0.00406 ± 0.00019 kPa and 0.004076 ± 0.00019 kPa; vapor or sublimation pressure ([1]; 293.16 K, Crystal): 0.007304 ± 0.0003 kPa and 0.007318 ± 0.0003 kPa; vapor or sublimation pressure ([1]; 298.14 K, Crystal): 0.0127 ± 0.00051 kPa; vapor or sublimation pressure ([1]; 298.14 K, Liquid): 0.01819 ± 0.00059 kPa; vapor or sublimation pressure ([1]; 298.15 K, Liquid): 0.01819 ± 0.00059 kPa; vapor or sublimation pressure ([1]; 298.16 K, Crystal): 0.01269 ± 0.00051 kPa; vapor or sublimation pressure ([1]; 303.13 K, Liquid): 0.02715 ± 0.00073 kPa and 0.02712 ± 0.00073 kPa; vapor or sublimation pressure ([1]; 303.14 K, Crystal): 0.0216 ± 0.00065 kPa and 0.02159 ± 0.00065 kPa; vapor or sublimation pressure ([1]; 305.12 K, Liquid): 0.03186 ± 0.0008 kPa; vapor or sublimation pressure ([1]; 305.13 K, Liquid): 0.03188 ± 0.0008 kPa; vapor or sublimation pressure ([1]; 307.11 K, Liquid): 0.03712 ± 0.00088 kPa and 0.03709 ± 0.00088 kPa; vapor or sublimation pressure ([1]; 308.1 K, Crystal): 0.03586 ± 0.00087 kPa; vapor or sublimation pressure ([1]; 308.11 K, Crystal): 0.03587 ± 0.00087 kPa; vapor or sublimation pressure ([1]; 309.1 K, Liquid): 0.0431 ± 0.00098 kPa and 0.04306 ± 0.00098 kPa; vapor or sublimation pressure ([1]; 310.6 K, Crystal): 0.04566 ± 0.001 kPa; vapor or sublimation pressure ([1]; 310.61 K, Crystal): 0.04595 ± 0.001 kPa and 0.04557 ± 0.001 kPa; vapor or sublimation pressure ([1]; 311.07 K, Liquid): 0.0502 ± 0.0011 kPa; vapor or sublimation pressure ([1]; 311.08 K, Liquid): 0.05006 ± 0.0011 kPa; vapor or sublimation pressure ([1]; 313.07 K, Liquid): 0.05817 ± 0.0012 kPa; vapor or sublimation pressure ([1]; 313.08 K, Liquid): 0.05817 ± 0.0012 kPa; vapor or sublimation pressure ([1]; 315.06 K, Liquid): 0.06722 ± 0.0014 kPa; vapor or sublimation pressure ([1]; 315.07 K, Liquid): 0.06704 ± 0.0014 kPa; vapor or sublimation pressure ([1]; 317.04 K, Liquid): 0.07707 ± 0.0015 kPa; vapor or sublimation pressure ([1]; 317.05 K, Liquid): 0.07715 ± 0.0015 kPa; vapor or sublimation pressure ([1]; 318.08 K, Liquid): 0.08317 ± 0.0016 kPa; vapor or sublimation pressure ([1]; 318.11 K, Liquid): 0.0833 ± 0.0016 kPa; vapor or sublimation pressure ([1]; 319.09 K, Liquid): 0.08886 ± 0.0017 kPa; vapor or sublimation pressure ([1]; 321.08 K, Liquid): 0.102 ± 0.0019 kPa and 0.103 ± 0.0019 kPa; vapor or sublimation pressure ([1]; 323.09 K, Liquid): 0.1177 ± 0.0021 kPa; vapor or sublimation pressure ([1]; 324.06 K, Liquid): 0.1247 ± 0.0022 kPa and 0.1246 ± 0.0022 kPa; Normal melting temperature ([1]; Crystal): 39.5 ± 0.4 °C; Molar enthalpy of transition or fusion [2]: 4.61 ± 0.167 kcal/mol
